The results in this text go back to publication PMC9060465 (Proceedings of the National Academy of Sciences of the …, 2022).

Test [1] has as its target T1, human GIPR (Homo sapiens, UniProt P48546).
T1 construct: expressed in transfected cells; host or cells: HEK293
T1 sequence (P48546 22-466): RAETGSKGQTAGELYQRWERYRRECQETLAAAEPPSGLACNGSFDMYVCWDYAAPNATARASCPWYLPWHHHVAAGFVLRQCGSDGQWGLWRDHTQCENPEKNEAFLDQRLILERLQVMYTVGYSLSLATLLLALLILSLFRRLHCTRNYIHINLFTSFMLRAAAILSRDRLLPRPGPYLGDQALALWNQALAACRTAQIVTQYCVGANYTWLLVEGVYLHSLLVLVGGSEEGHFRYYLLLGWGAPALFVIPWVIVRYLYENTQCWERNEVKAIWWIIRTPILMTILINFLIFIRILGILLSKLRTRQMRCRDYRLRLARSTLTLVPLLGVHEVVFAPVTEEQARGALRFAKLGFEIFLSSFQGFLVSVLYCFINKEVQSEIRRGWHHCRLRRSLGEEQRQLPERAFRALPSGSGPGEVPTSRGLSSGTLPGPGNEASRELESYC
The test can be described thus: GIPR low density cAMP accumulation in HEK293 cells. The class given is cell-based. The method, then: (§1) Fig. 4. […] (B) Ligand-induced GTPγS binding of Gαs was performed using the GIPR-expressing membranes. […] (C) Agonist-stimulated cAMP production was measured in human GIPR expressing HEK293 cells. […] (E) Ligand-induced GTPγS binding of Gαs was performed using the GLP-1R-expressing membranes. […] (F) Agonist-stimulated cAMP production was measured in human GLP-1R-expressing HEK293 cells. […] Data presented are representative of n ≥ 3 independent experiments. Summarized data are shown in SI Appendix, Table 2. log M; log Molar.
(§2) We note that the albumin-binding propensity of fatty acid-modified peptides can confound a pharmacological comparison of molecules, given the common use of albumin and serum as nonspecific blocking agents in biological assays. Therefore, to obviate this, entirely albumin-free assays supplemented with bovine casein or bacitracin were used to prevent nonspecific binding ([10]).
(§3) Functional potency (EC50)
(§4) and efficacy (% Top) of ligands to induce Gα s -GTPγS binding and cAMP accumulation in HEK293 cells expressing GIPR were determined. The equilibrium affinity (KD) of
(§5) ligands for the immobilized ectodomain of the GIPR were quantified by surface plasmon resonance. […]
(§6) SPR data were analyzed using T200 evaluation software (Cytiva). All data are presented as geometric means with SEM and n values
(§7) according to established practices. ND, not determined. NA, not applicable.

For test [2], the target named is T2, GLP-1R (Homo sapiens, UniProt P43220). The test can be described thus: GLP-1R Gαs [35S]GTPγS binding, GLP-1R-expressing membranes. Type of test: biochemical. The following applies: for GLP-1R GTPγS Recruitment Top: efficacy (% Top), normalized to GLP-1(7-36), (SEM). On the set-up: expressed in transfected cells; host or cells: HEK293. On the procedure:
as §1
(§8) We note that the albumin-binding propensity of fatty acid-modified peptides can confound a pharmacological comparison of molecules, given the common use of albumin and serum as nonspecific blocking agents in biological assays. Therefore, to obviate this, entirely albumin-free assays supplemented with bovine casein or bacitracin were used to prevent nonspecific binding ([10]). […]
(§9) Middle Panel: The affinity (Ki) of ligands for the GLP-1R was […]
(§10) Functional potency (EC50) and efficacy (% Top) of ligands to induce Gα s-GTPγS binding and cAMP accumulation in HEK293 cells expressing GLP-1R were determined. The equilibrium affinity (KD) of ligands for the immobilized ectodomain of the GLP-1R were quantified by surface plasmon resonance. […]
(§11) SPR data were analyzed using T200 evaluation software (Cytiva). All data are presented as geometric means with SEM and n values according to established practices. ND, not determined. NA, not applicable.
Target sequence in this assay (P43220 24-463): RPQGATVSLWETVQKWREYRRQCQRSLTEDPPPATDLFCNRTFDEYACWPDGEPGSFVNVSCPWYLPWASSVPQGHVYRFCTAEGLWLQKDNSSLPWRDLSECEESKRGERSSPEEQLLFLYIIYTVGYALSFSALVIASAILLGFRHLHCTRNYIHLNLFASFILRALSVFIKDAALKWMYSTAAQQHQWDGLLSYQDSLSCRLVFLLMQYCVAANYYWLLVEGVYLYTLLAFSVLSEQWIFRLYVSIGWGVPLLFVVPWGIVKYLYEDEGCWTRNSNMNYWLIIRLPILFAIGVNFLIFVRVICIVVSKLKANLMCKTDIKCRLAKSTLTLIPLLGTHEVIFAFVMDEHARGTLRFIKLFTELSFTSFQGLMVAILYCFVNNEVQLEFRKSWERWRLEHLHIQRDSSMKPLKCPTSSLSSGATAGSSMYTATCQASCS

The target of test [3] is T2, GLP-1R. Nature of the test: GRK2 recruitment to the GLP-1R, NanoBRET. The class given is cell-based. The following applies: for GLP-1R GRK2 Recruitment Top: efficacy (% Top), relative to maximal GLP-1, (SEM). On the set-up: expressed in transfected cells; host or cells: freestyle HEK cells. On the procedure:
After 48 h, transfected cells were incubated in phosphate-buffered saline (PBS) containing 0.1% (wt/vol) bovine casein and varying concentrations of the ligands. […]
The potency (EC50) and efficacy (% Top) for ligands to induce GLP-1R Internalization were
determined using diffusion-enhanced resonance energy transfer.
relative efficacy for NanoBRET assays. SPR data were analyzed using T200 evaluation software (Cytiva). All data are presented as geometric means with SEM and n values
as §7
Target sequence in this assay (P43220 24-463): as above
Target sequence in this assay (P25098 whole entry partner): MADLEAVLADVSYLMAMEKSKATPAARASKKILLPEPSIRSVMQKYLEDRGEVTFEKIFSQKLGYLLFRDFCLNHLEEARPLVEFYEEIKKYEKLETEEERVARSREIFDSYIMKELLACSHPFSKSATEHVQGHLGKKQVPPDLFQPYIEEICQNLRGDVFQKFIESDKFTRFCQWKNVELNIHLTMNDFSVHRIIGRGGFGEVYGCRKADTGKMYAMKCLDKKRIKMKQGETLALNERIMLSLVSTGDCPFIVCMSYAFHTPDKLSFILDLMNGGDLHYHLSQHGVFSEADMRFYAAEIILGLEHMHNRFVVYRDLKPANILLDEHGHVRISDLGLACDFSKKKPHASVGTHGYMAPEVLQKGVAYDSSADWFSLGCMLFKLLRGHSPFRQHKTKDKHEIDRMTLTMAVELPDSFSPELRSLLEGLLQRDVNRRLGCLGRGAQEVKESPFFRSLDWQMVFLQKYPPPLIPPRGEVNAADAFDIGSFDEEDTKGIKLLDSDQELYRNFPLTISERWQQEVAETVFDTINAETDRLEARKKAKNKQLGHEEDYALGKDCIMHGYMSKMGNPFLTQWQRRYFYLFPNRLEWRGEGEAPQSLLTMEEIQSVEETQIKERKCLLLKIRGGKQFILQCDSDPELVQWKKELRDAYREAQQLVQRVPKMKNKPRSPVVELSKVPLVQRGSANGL

The target in test [4] is T2, GLP-1R. The test can be described thus: β-arrestin 1 recruitment to the GLP-1R, NanoBRET. The class given is cell-based. Also noted: expressed in transfected cells. The following applies: efficacy (% Top), relative efficacy to GLP-1; (SEM). On the procedure:
Functional potency (EC50) […]
and efficacy (% Top) of ligands to induce Gα s -GTPγS binding and cAMP accumulation in HEK293 cells expressing GIPR were determined. The equilibrium affinity (KD) of ligands for the immobilized ectodomain of the GIPR were quantified by surface plasmon resonance. Middle Panel: The affinity (Ki) of ligands for the GLP-1R was […]
as §10
recruitment to the GLP-1R were determined using the NanoBRET approach. The potency (EC50) and efficacy (% Top) for ligands to induce GLP-1R Internalization were determined using diffusion-enhanced resonance energy transfer. […]
relative efficacy for NanoBRET assays. SPR data were analyzed using T200 evaluation software (Cytiva). All data are presented as geometric means with SEM and n values according to established practices. ND, not determined. NA, not applicable.
Target sequence in this assay (P43220 24-463): as the sequence (P43220 24-463) above
Target sequence in this assay (P49407 whole entry partner): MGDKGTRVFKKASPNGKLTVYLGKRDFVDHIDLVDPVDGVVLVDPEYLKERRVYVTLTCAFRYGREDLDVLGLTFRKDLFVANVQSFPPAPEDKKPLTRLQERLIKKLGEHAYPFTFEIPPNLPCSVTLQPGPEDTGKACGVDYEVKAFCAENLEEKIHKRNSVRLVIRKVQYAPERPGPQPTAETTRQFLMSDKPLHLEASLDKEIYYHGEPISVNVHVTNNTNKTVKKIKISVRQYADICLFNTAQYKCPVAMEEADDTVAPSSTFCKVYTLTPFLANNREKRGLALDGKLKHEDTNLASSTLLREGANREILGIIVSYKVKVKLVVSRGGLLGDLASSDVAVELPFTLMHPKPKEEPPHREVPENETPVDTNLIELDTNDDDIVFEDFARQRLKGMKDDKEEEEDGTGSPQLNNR

The target in test [5] is T2, GLP-1R. The test can be described thus: GLP-1R low density cAMP accumulation in HEK293 cells. Type of test: cell-based. On the set-up: expressed in transfected cells; host or cells: HEK293. The following applies: for GLP-1R Low Density cAMP Top: efficacy (% Top), normalized to GLP-1(7-36), (SEM). The method, then:
as §1, §8, §9, §10, §11
Target sequence in this assay (P43220 24-463): as the sequence (P43220 24-463) above

Test [6] addresses T2, GLP-1R. The test can be described thus: Ligand-induced GLP-1R internalization, SNAP-GLP-1R HEK293 cells. The class given is cell-based. The following applies: for GLP-1R Internalization Top: efficacy (% Top), percent internalization compared to maximal GLP-1, (SEM).
Target sequence in this assay (P43220 24-463): as above
Test [7] addresses T1, human GIPR. The test can be described thus: GIPR Gαs [35S]GTPγS binding, GIPR-expressing membranes. Type of test: biochemical. On the procedure:
as §1, §2, §3, §4, §5, §6, §7

The mark [8] stands for this setting: efficacy (% Top), normalized to GIP(1-42), (SEM).

Where a SMILES comes first, the peptide text is derived from it. [ ]: non-standard residue; d: D form. Aib = CC(C)(N)C(=O)O

`CC[C@H](C)[C@H](NC(=O)[C@H](CC(C)C)NC(=O)[C@H](Cc1c[nH]c2ccccc12)NC(=O)[C@H](CCC(N)=O)NC(=O)[C@@H](NC(=O)[C@H](Cc1ccccc1)NC(=O)[C@H](C)NC(=O)[C@H](CCCCN)NC(=O)[C@H](CCC(N)=O)NC(=O)[C@H](C)NC(=O)[C@@H](NC(=O)[C@H](CCCCN)NC(=O)[C@H](CC(=O)O)NC(=O)[C@H](CC(C)C)NC(=O)C(C)(C)NC(=O)[C@@H](NC(=O)[C@H](CO)NC(=O)[C@H](Cc1ccc(O)cc1)NC(=O)[C@H](CC(=O)O)NC(=O)[C@H](CO)NC(=O)[C@@H](NC(=O)[C@H](Cc1ccccc1)NC(=O)[C@@H](NC(=O)CNC(=O)[C@H](CCC(=O)O)NC(=O)C(C)(C)NC(=O)[C@@H](N)Cc1c[nH]cn1)[C@@H](C)O)[C@@H](C)O)[C@@H](C)CC)[C@@H](C)CC)C(C)C)C(=O)N[C@@H](C)C(=O)NCC(=O)NCC(=O)N1CCC[C@H]1C(=O)N[C@@H](CO)C(=O)N[C@@H](CO)C(=O)NCC(=O)N[C@@H](C)C(=O)N1CCC[C@H]1C(=O)N1CCC[C@H]1C(=O)N1CCC[C@H]1C(=O)N[C@@H](CO)C(N)=O` [Tzp ∆C20,Y1H] (H-H[Aib]EGTFTSDYSI[Aib]LDKIAQKAFVQWLIAGGPSSGAPPPS-NH2): the EC50 on human GIPR [1] (cAMP accumulation, HEK293 cells expressing GIPR, albumin-free, geometric mean (SEM, n)) came out at 0.682 nM; on GLP-1R [2] (Gαs-GTPγS binding, GLP-1R-expressing membranes, albumin-free, geometric mean (SEM, n), read-out: GLP-1R GTPγS Recruitment EC50) it was 0.239 nM; on GLP-1R [3] (NanoBRET, transfected freestyle HEK cells, PBS with 0.1% casein, geometric mean (SEM, n)), 3.08 nM; on GLP-1R [5] (cAMP accumulation, HEK293 cells expressing GLP-1R, albumin-free, geometric mean (SEM, n)), 0.163 nM; on GLP-1R [6] (diffusion-enhanced resonance energy transfer, SNAP-GLP-1R HEK293 cells, 37 °C, geometric mean (SEM, n)) it was 2.13 nM; at human GIPR [7] (Gαs-GTPγS binding, GIPR-expressing membranes, albumin-free, geometric mean (SEM, n), read-out: GIPR GTPγS Recruitment EC50), 0.273 nM. Further, the “GIPR Low Density cAMP Top” value at human GIPR [1] (setting [8]) is on record as 80.9 (3.4) %. For the same compound, the “GLP-1R GTPγS Recruitment Top” value on GLP-1R [2] was 88.9 (3.9) %. Also, on GLP-1R [3], the “GLP-1R GRK2 Recruitment Top” value is reported as 84.2 (1.5 ) %. For the same compound, the “GLP-1R β-Arr1 Recruitment Top” value at GLP-1R [4] is 74.6 (2.2) %. Further, the “GLP-1R Low Density cAMP Top” value at GLP-1R [5] was 111 (5) %. Moreover, the “GLP-1R Internalization Top” value on GLP-1R [6] is listed as 101 (6) %. Further, on human GIPR [7] (setting [8]), the “GIPR GTPγS Recruitment Top” value is 31.4 (6.6) %.
As for `CC[C@H](C)[C@H](NC(=O)[C@H](CC(C)C)NC(=O)[C@H](Cc1c[nH]c2ccccc12)NC(=O)[C@H](CCC(N)=O)NC(=O)[C@@H](NC(=O)[C@H](Cc1ccccc1)NC(=O)[C@H](C)NC(=O)[C@H](CCCCNC(=O)COCCOCCNC(=O)COCCOCCNC(=O)CC[C@H](NC(=O)CCCCCCCCCCCCCCCCCCC(=O)O)C(=O)O)NC(=O)[C@H](CCC(N)=O)NC(=O)[C@H](C)NC(=O)[C@@H](NC(=O)[C@H](CCCCN)NC(=O)[C@H](CC(=O)O)NC(=O)[C@H](CC(C)C)NC(=O)C(C)(C)NC(=O)[C@@H](NC(=O)[C@H](CO)NC(=O)[C@H](Cc1ccc(O)cc1)NC(=O)[C@H](CC(=O)O)NC(=O)[C@H](CO)NC(=O)[C@@H](NC(=O)[C@H](Cc1ccccc1)NC(=O)[C@@H](NC(=O)CNC(=O)[C@H](CCC(=O)O)NC(=O)C(C)(C)NC(=O)[C@@H](N)Cc1ccc(O)cc1)[C@@H](C)O)[C@@H](C)O)[C@@H](C)CC)[C@@H](C)CC)C(C)C)C(=O)N[C@@H](C)C(=O)NCC(=O)NCC(=O)N1CCC[C@H]1C(=O)N[C@@H](CO)C(=O)N[C@@H](CO)C(=O)NCC(=O)N[C@@H](C)C(=O)N1CCC[C@H]1C(=O)N1CCC[C@H]1C(=O)N1CCC[C@H]1C(=O)N[C@@H](CO)C(N)=O` [Tzp, tirzepatide], the “GLP-1R GTPγS Recruitment Top” value at GLP-1R [2] is on record as 43.9 (1.7) %. For the same compound, on GLP-1R [3], the “GLP-1R GRK2 Recruitment Top” value is 24.7 (2.8 ) %. The “GLP-1R β-Arr1 Recruitment Top” value at GLP-1R [4] was 7.55 (0.93) %. The “GLP-1R Low Density cAMP Top” value on GLP-1R [5] is 99.5 (4.5) %. The “GLP-1R Internalization Top” value at GLP-1R [6] is 41.6 (3.0) %.
Regarding semaglutide [reference compound], the “efficacy at inducing internalization of the GLP-1R, in words” value at GLP-1R [6] (SNAP-tagged receptor in HEK293 cells, representative of n≥3) is reported as “equally efficacious”.
